Source: patent US8440652B2, “MST1 kinase inhibitors and methods of their use” (Lexicon Pharmaceuticals, Inc., priority 2011, dated 2013)
Where two headings read alike, the source gives them in different places.

Target: T1, MST1 (Homo sapiens, UniProt Q13043)
T1 sequence (Q13043 1-487): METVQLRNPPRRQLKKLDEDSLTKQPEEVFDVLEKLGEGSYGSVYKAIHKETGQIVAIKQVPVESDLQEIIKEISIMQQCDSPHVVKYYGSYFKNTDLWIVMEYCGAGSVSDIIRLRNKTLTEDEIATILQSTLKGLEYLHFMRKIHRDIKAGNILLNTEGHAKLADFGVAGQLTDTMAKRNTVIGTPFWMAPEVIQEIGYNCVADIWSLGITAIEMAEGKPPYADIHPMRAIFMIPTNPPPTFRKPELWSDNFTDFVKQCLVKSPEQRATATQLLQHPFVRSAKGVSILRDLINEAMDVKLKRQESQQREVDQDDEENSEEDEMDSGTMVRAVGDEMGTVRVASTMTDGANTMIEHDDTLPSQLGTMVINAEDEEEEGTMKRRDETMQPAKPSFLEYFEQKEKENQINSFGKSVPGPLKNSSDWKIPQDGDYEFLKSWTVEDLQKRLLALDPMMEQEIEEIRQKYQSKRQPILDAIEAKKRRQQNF
Assay: In vitro measurement of MST1 inhibition (Z′-Lyte kinase assay)
Type: biochemical
Method: Assays were performed in low-volume 384-well black proxiplates (Perkin Elmer, PE-Blk-Proxi-6008269). Eight compounds were first diluted into LDV (Echo) plates using a Multiprobe, at a starting concentration of 1 mM compound in 100% DMSO. Using the ECHO, 75 nl compound was pinged into 384-well proxiplates. The starting concentration of compound in each assay plate is 7.5 uM, followed by 3-fold dilutions, to give quadruplicate ten-point concentration curves. A 3× solution of MST1 enzyme in kinase buffer (Invitrogen, PR4940C) was added to wells containing compound or DMSO controls, followed by a 10 minute preincubation step. Reactions were initiated by adding 5 μL of a mixture of ATP and Z′-Lyte S/T Pep 7 (Invitrogen, PV3180) and proceeded at RT for 1 hour. […] At the end of the kinase reaction, 10 ul of developing solution (Invitrogen, catalog #PR4876B; development buffer A diluted […] in development buffer B) was added to each well and incubated at RT for 1 hr. All wells were read on a Tecan at 400 nm excitation and 460 nm/530 nm emission. Plus and minus enzyme controls were used to calculate percent inhibition and IC50 curves were generated using Excel.

[1] = 1 μM ATP, read-out: IC50 (μM) 1 μM ATP
[2] = 50 μM ATP, read-out: IC50 (μM) 50 μM ATP

| IC50 [1] [µM] | IC50 [2] [µM] | SMILES |
| --- | --- | --- |
| < 0.01 | < 0.01 | N#CC1(c2ccc(-c3cnc(N)c(-c4ccc5c(c4)CCNC5=O)n3)cc2)CCCC1 [1-(4-(5-amino-6-(1-oxo-1,2,3,4-tetrahydroisoquinolin-6-yl)pyrazin-2-yl)phenyl)cyclopentanecarbonitrile] |
| < 0.05 | < 0.01 | N#CC1(c2ccc(-c3cnc(N)c(-c4ccc5c(=O)[nH]ccc5c4)n3)cc2)CC1 [1-(4-(5-amino-6-(1-oxo-1,2-dihydroisoquinolin-6-yl)pyrazin-2-yl)phenyl)cyclopropanecarbonitrile] |
| < 0.01 | < 0.01 | N#CC1(c2ccc(-c3cnc(N)c(-c4ccc5c(c4)C4(CC4)CNC5=O)n3)cc2)CC1 [1-(4-(5-amino-6-(1′-oxo-2′,3′-dihydro-1′H-spiro[cyclopropane-1,4′-isoquinolin]-6′-yl)pyrazin-2-yl)phenyl)cyclopropanecarbonitrile] |
| < 0.05 | < 0.01 | N#CC1(c2ccc(-c3cnc(N)c(-c4ccc5c(c4)C4(CC4)NC5=O)n3)cc2)CC1 [1-(4-(5-amino-6-(3′-oxospiro[cyclopropane-1,1′-isoindolin]-6′-yl)pyrazin-2-yl)phenyl)cyclopropanecarbonitrile] |
| < 0.01 | < 0.01 | CC1(C)CNC(=O)c2ccc(-c3nc(-c4ccc(C5(C#N)CC5)cc4)cnc3N)cc21 [1-(4-(5-amino-6-(4,4-dimethyl-1-oxo-1,2,3,4-tetrahydroisoquinolin-6-yl)pyrazin-2-yl)phenyl)cyclopropanecarbonitrile] |
| < 0.15 | < 0.15 | N#CC1(c2ccc(-c3cc(-c4ccc5c(c4)CCNC5=O)c(N)nn3)cc2)CC1 [1-(4-(6-amino-5-(1-oxo-1,2,3,4-tetrahydroisoquinolin-6-yl)pyridazin-3-yl)phenyl)cyclopropanecarbonitrile] |
| < 0.05 | < 0.05 | N#CC1(c2ccc(-c3cnc(N)c(-c4ccc5c(c4)CCNC5=O)c3)cc2)CC1 [1-(4-(6-amino-5-(1-oxo-1,2,3,4-tetrahydroisoquinolin-6-yl)pyridin-3-yl)phenyl)cyclopropanecarbonitrile] |
| < 0.15 | < 0.05 | N#CCn1cc(-c2cnc(N)c(-c3ccc4c(c3)CCNC4=O)n2)cn1 [2-(4-(5-amino-6-(1-oxo-1,2,3,4-tetrahydroisoquinolin-6-yl)pyrazin-2-yl)-1H-pyrazol-1-yl)acetonitrile] |
| < 0.05 | < 0.01 | Cc1cc(-c2cnc(N)c(-c3ccc4c(c3)CCNC4=O)n2)ccc1C(C)(C)C#N [2-(4-(5-amino-6-(1-oxo-1,2,3,4-tetrahydroisoquinolin-6-yl)pyrazin-2-yl)-2-methylphenyl)-2-methylpropanenitrile] |
| < 0.05 | < 0.01 | CC(C)(Oc1ccc(-c2cnc(N)c(-c3ccc4c(c3)CCNC4=O)n2)cc1)C(N)=O [2-(4-(5-amino-6-(1-oxo-1,2,3,4-tetrahydroisoquinolin-6-yl)pyrazin-2-yl)phenoxy)-2-methylpropanamide] |
| < 0.15 | < 0.05 | N#CCOc1ccc(-c2cnc(N)c(-c3ccc4c(c3)CCNC4=O)n2)cc1 [2-(4-(5-amino-6-(1-oxo-1,2,3,4-tetrahydroisoquinolin-6-yl)pyrazin-2-yl)phenoxy)acetonitrile] |
| < 0.05 | < 0.01 | CC(C)(C#N)c1ccc(-c2cnc(N)c(-c3ccc4c(c3)CCNC4=O)n2)cc1 [2-(4-(5-amino-6-(1-oxo-1,2,3,4-tetrahydroisoquinolin-6-yl)pyrazin-2-yl)phenyl)-2-methylpropanenitrile] |
| < 0.05 | < 0.01 | N#CC1CC1c1ccc(-c2cnc(N)c(-c3ccc4c(c3)CCNC4=O)n2)cc1 (stereo not shown) [2-(4-(5-amino-6-(1-oxo-1,2,3,4-tetrahydroisoquinolin-6-yl)pyrazin-2-yl)phenyl)cyclopropanecarbonitrile] |
| < 0.05 | < 0.01 | CC(C)(C#N)c1ccc(-c2cnc(N)c(-c3ccc4c(=O)[nH]ccc4c3)n2)cc1 [2-(4-(5-amino-6-(1-oxo-1,2-dihydroisoquinolin-6-yl)pyrazin-2-yl)phenyl)-2-methylpropanenitrile] |
| < 0.05 | < 0.01 | CC(C)(C#N)c1ccc(-c2cnc(N)c(-c3ccc4c(c3)CCNC4=O)n2)s1 [2-(5-(5-amino-6-(1-oxo-1,2,3,4-tetrahydroisoquinolin-6-yl)pyrazin-2-yl)thiophen-2-yl)-2-methylpropanenitrile] |
| < 0.05 | < 0.01 | N#CCc1ccc(-c2cnc(N)c(-c3ccc4c(c3)CCNC4=O)n2)s1 [2-(5-(5-amino-6-(1-oxo-1,2,3,4-tetrahydroisoquinolin-6-yl)pyrazin-2-yl)thiophen-2-yl)acetonitrile] |
| < 0.05 | < 0.05 | CC(C)(C#N)c1ccc(-c2cnc(N)c(-c3ccc4c(c3)CCNC4=O)c2)cn1 [2-(6′-amino-5′-(1-oxo-1,2,3,4-tetrahydroisoquinolin-6-yl)-[3,3′-bipyridin]-6-yl)-2-methylpropanenitrile] |
| < 0.05 | < 0.01 | CCN(CC)S(=O)(=O)c1ccc(-c2cnc(N)c(-c3ccc(C(N)=O)cn3)c2)cc1 [2′-amino-5′-(4-(N,N-diethylsulfamoyl)phenyl)-[2,3′-bipyridine]-5-carboxamide] |
| < 0.05 | < 0.01 | CCNS(=O)(=O)c1ccc(-c2cnc(N)c(-c3ccc(C(N)=O)cn3)c2)cc1 [2′-amino-5′-(4-(N-ethylsulfamoyl)phenyl)-[2,3′-bipyridine]-5-carboxamide] |
| < 0.05 | < 0.01 | NCC1CCC(NC(=O)c2nc(-c3ccc(S(=O)(=O)NC4CC4)cc3)cnc2N)CC1 (stereo not shown) [3-amino-N-(4-(aminomethyl)cyclohexyl)-6-(4-(N-cyclopropylsulfamoyl)phenyl)pyrazine-2-carboxamide] |
| – | < 0.15 | CCCC(C)NC(=O)c1nc(-c2cc(OC)c(OC)c(OC)c2)cnc1N (stereo not shown) [3-amino-N-(pentan-2-yl)-6-(3,4,5-trimethoxyphenyl)pyrazine-2-carboxamide] |
| – | < 0.15 | COc1ccc(-c2cnc(N)c(C(=O)NC3CCCCC3)n2)cc1OC [3-amino-N-cyclohexyl-6-(3,4-dimethoxyphenyl)pyrazine-2-carboxamide] |
| < 0.15 | < 0.05 | CCNS(=O)(=O)c1ccc(-c2cnc(N)c(C(=O)NC3CCCCC3)n2)cc1 [3-amino-N-cyclohexyl-6-(4-(N-ethylsulfamoyl)phenyl)pyrazine-2-carboxamide] |
| – | < 0.15 | COCc1ccc(-c2cnc(N)c(C(=O)NC3CCCCC3)n2)cc1 [3-amino-N-cyclohexyl-6-(4-(methoxymethyl)phenyl)pyrazine-2-carboxamide] |
| < 0.15 | < 0.15 | CN(C1CC1)S(=O)(=O)c1ccc(-c2cnc(N)c(C3=CCN(C(=O)CC#N)CC3)c2)cc1 [4-(2-amino-1′-(2-cyanoacetyl)-1′,2′,3′,6′-tetrahydro-[3,4′-bipyridin]-5-yl)-N-cyclopropyl-N-methylbenzenesulfonamide] |
| – | < 0.15 | NC(=O)c1ccc(-c2cc(-c3cn[nH]c3)cnc2N)cc1 [4-(2-amino-5-(1H-pyrazol-4-yl)pyridin-3yl)benzamide] |
| – | < 0.15 | NC(=O)c1ccc(-c2cc(-c3ccc(S(=O)(=O)NC4CC4)cc3Cl)cnc2N)cc1 [4-(2-amino-5-(2-chloro-4-(N-cyclopropylsulfamoyl)phenyl)pyridin-3-yl)benzamide] |
